Literature values as cited in patent publication US20220354785A1, “ORAL LOZENGE PRODUCTS” (NICOVENTURES TRADING LIMITED, priority 2021, published 2022).

Columns and labels:
[1] = aqueous environment (e.g., saliva) / water
[2] = isomerizes to trans-bixin

solubility in water [1]	chemical stability when isolated [2]	SMILES	logP value
		C=C(C)[C@@H]1CCC(C)=C[C@H]1c1c(O)cc(CCCCC)cc1O [CBD, cannabidiol]	about 6.5
insoluble in water	chemically unstable when isolated	COC(=O)/C=C/C(C)=C\C=C\C(C)=C\C=C\C=C(C)\C=C\C=C(C)\C=C\C(=O)O [bixin]	
